According to publication PMC13274462, “Growth of Corynebacterium glutamicum on 5-oxo-L-proline (pyroglutamate) as a carbon and nitrogen source requires the PxpR-controlled pxpTABC genes” (Applied and Environmental Microbiology, 2026):

Target: T1, PxpR (Corynebacterium glutamicum, UniProt Q8NRP0)
T1 construct: gene Cgl1008; PxpR protein with a C-terminal Strep-tag-II (PxpR-Strep)
T1 sequence (Q8NRP0 11-227): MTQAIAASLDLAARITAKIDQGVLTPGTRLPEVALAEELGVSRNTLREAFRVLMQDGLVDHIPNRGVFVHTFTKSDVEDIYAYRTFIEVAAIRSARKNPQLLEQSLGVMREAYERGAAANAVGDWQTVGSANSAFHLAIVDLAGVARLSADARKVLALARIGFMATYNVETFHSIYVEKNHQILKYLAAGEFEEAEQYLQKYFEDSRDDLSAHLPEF
Assay: isothermal titration calorimetry (ITC) with purified PxpR-Strep, […]°C, pH […]
Assay type: binding

Q: With O=C1CC[C@@H](C(=O)O)N1 [5-OP, 5-oxo-L-proline] as the molecule, how does the Kd read?
A: 0.726 ± 0.023 µM
